Laboratory results as given in patent US20240092800A1, “USP13 INHIBITORS AND METHODS OF USE THEREOF” (GEORGETOWN UNIVERSITY, priority 2021, published 2024).

What was measured:
[1] = test system: tyrosine hydroxylase (TH); assay: Tyrosine hydroxylase staining in striatum of TgA53T mice; format: in vivo, mouse; conditions: 40 mg/Kg I.P. daily for 7 days, vs DMSO
Protocol: (§1) Immunohistology. Animals were deeply anesthetized with a mixture of xylazine and ketamine (1:8), washed with normal saline for 1 min and then perfused with 4% paraformaldehyde (PFA) for 15-20 min. Brains were quickly dissected out and immediately stored in 4% PFA for 24 h at 4° C. and then transferred to 30% sucrose at 4° C. for 48 h. Brains were cut using a cryostat microtome into 20 μm thick coronal sections and stored at −20° C.
Immunohistochemistry was performed on the 20 μm thick brain sections for evaluation of ubiquitination of alpha-synuclein. The antibodies used were human alpha-synuclein monoclonal antibody (Thermo Fisher, AHB0261, Rockford, IL, USA) and ubiquitin polyclonal antibody (Thermo Fisher, PA3-16717, Rockford, IL, USA). The optic densitometry of co-localization of ubiquitin with alpha-synuclein was measured using Image J. Tyrosine hydroxylase (TH) is the limiting enzyme in DA synthesis, so probing for TH+ neurons will help to evaluate the status of DA producing neurons in the SN and their terminals in the striatum. We performed fluorescent staining of TH+ in striatum and conducted optic densitometry measurement of striatal DA terminals. Nuclear staining with 4,6-diamidino-2-phenylindole was performed according to manufacturer's protocols (Life Technologies, Rockford, IL, USA).

murine tau = assay: p-Tau ser396 ELISA in TgA53T mice; format: in vivo, mouse; conditions: 10 mg/Kg or 40 mg/Kg I.P. daily for 7 days
Protocol: (§2) A total of 25 μL soluble protein was incubated overnight at 4° C. with 25 μL of a mixed bead solution. After washing, samples were incubated with 25 μL detection antibody solution for 1.5 hours at room temperature. Streptavidin-phycoerythrin (25 μL) was added to each well containing the 25 μL of detection antibody solution. Samples were then washed and suspended in 100 μL of sheath fluid. Samples were then run on MAGPIX with Xponent software. The median fluorescent intensity (MFI) data were analyzed using a 5-parameter logistic or spline curve-fitting method for calculating analyte concentrations in samples. Specific alpha-synuclein ELISAs were performed on tissue soluble extracts from midbrain lysates in 1XSTEN buffer. The ELISA for USP13 (MyBioSource, Cat # MBS9335287), Human alpha-synuclein (Biolegend, Cat #844101) and specific p-Tau ser396 (Invitrogen, KHB7031) were performed on cell or brain tissue extracts as described above according to manufacturers' protocol.

human alpha-synuclein [2] = assay: Alpha-synuclein levels via ELISA in alpha-synuclein-transfected SHSY5Y cells; format: cell-based; conditions: 5 hours, concentration between 1 and 0.1 nM
Protocol: Cell lines, transfection, and treatment.
Alpha-Synuclein Enzyme-Linked Immunosorbent Assay (ELISA). ELISAs for total human alpha-synuclein (Millipore; Burlington, MA) were conducted using Milliplexed ELISA. Briefly, Xmap technology uses magnetic microspheres that are internally coded with two fluorescent dyes. Through precise combinations of these two dyes, multiple proteins are simultaneously measured within a sample. Each of these spheres is coated with a specific capture antibody. The capture antibody binds to the detection antibody and a reporter molecule, completing the reaction on the surface of the bead.
as §2

[3] = test system: human SHSY5Y neuroblastoma cells; assay: Cell viability by MTT and LDH assays; conditions: 5 hours, up to 1 mM concentration
Protocol: Human SHSY-5Y neuroblastoma cells were cultured in Dulbecco's Modified Eagle's Medium (DMEM) (ThermoFisher Scientific; Waltham, MA) with 10% Fetal Bovine Serum (FBS) (ThermoFisher) and 1% Penicillin-Streptomycin (PenStrep, ThermoFisher) and incubated at 37° C. under atmospheric oxygen concentrations (21%) with 5% CO2. SHSY-5Y cells were cultured in DMEM with Ham's F12 (1:1) (ThermoFisher) with 20% FBS, 1% PenStrep. Cells were plated at a density tailored to reach 70-80% confluence at the beginning of every experiment. SH-SY5Y cells were transiently transfected for 24 hours with human wild-type α-synuclein using Fugene HD transfection reagent (Promega; Madison, WI) before fresh culture media and drug were added.
Cell viability was determined via lactate dehydrogenase assay on culture media, (ThermoFisher) and MTT assay on plated cells (ThermoFisher).

Nissl+ cells = assay: Nissl staining neuron counts in TgA53T mice; format: in vivo, mouse; conditions: 40 mg/Kg I.P. daily for 7 days, vs DMSO
Protocol: as §1
Nissl and Silver Staining. Nissl staining was performed using FD Cresyl Violet Solution™ Regular Strength (FD NeuroTechnologies, Cat PS102-01) as per manufacturer's instructions. Silver staining was performed using FD NeuroSilver™ (FD NeuroTechnologies, Cat PK301,) as per manufacturer's instructions.

human alpha-synuclein [4] = assay: Alpha-synuclein levels in TgA53T mice (WB, ELISA, DAB staining); format: in vivo, mouse; conditions: 10 mg/kg or 40 mg/kg I.P. daily for 7 days, vs DMSO

Fc1ccc2nccc(OCc3ccccc3)c2c1 [4-(Benzyloxy)-6-fluoroquinoline]
staining of tyrosine hydroxylase (TH) [1]: did not show any noticeable effects | murine tau levels (ptau396 ELISA) (murine tau): no effect | level of alpha-synuclein via ELISA (human alpha-synuclein [2]): significantly reduce the level of alpha-synuclein | cell death in two viability assays (MTT and LDH) [3]: do not cause cell death | neuron counts (Nissl+ cells) (Nissl+ cells; cortex): significantly increased neuron counts | neuron counts (Nissl+ cells) (Nissl+ cells; striatum): significantly increased neuron counts | neuron counts (Nissl+ cells) (Nissl+ cells; substantia nigra (SN)): significantly increased neuron counts | human alpha-synuclein in midbrain lysates by WB (human alpha-synuclein [4]): significantly reduced
